# Measurements published in patent US8808746B2, “Sustained-release microspheres and methods of making and using same” (Fresenius Kabi USA, LLC, priority 2004, dated 2014).
# Experiment: pH versus accelerated stability of octreotide acetate solutions (HPLC)
# Type: physicochemical
# Settings: 70° C.
# Description: For this study, 0.2 mg/mL octreotide acetate solutions in different pH buffers (buffer ionic strength=˜50 mM) were incubated at 70° C. At various designated times, the concentration of octreotide was determined using HPLC. The degradation rate versus time (Kobs) was calculated and plotted.
# [1] = pH 4.0, Arginine-Acetate, 0 hours
# [2] = pH 4.0, Arginine-Acetate, 24 hours
# [3] = pH 4.0, Arginine-Acetate, 48 hours
# [4] = pH 4.0, Arginine-Acetate, 69 hours
# [5] = pH 5.0, Arginine-Acetate, 0 hours
# [6] = pH 5.0, Arginine-Acetate, 24 hours
# [7] = pH 5.0, Arginine-Acetate, 48 hours
# [8] = pH 5.0, Arginine-Acetate, 69 hours
smiles,measurement,setting,value
"C[C@@H](O)[C@@H]1NC(=O)[C@H](CCCCN)NC(=O)[C@@H](Cc2c[nH]c3ccccc23)NC(=O)[C@H](Cc2ccccc2)NC(=O)[C@@H](NC(=O)[C@H](N)Cc2ccccc2)CSSC[C@@H](C(=O)N[C@H](CO)[C@@H](C)O)NC1=O [Octreotide, octreotide acetate]",stability in solution,between a pH of 3.0 and 5.0,relatively stable
same,Octreotide Assay,"pH 2.0, Glycine-HCl, 0 hours",0.1965 mg/mL
same,Octreotide Assay (% Stability),"pH 2.0, Glycine-HCl, 0 hours",(100.00) %
same,Octreotide Assay,"pH 2.0, Glycine-HCl, 24 hours",0.1651 mg/mL
same,Octreotide Assay (% Stability),"pH 2.0, Glycine-HCl, 24 hours",(84.02) %
same,Octreotide Assay,"pH 2.0, Glycine-HCl, 48 hours",0.1425 mg/mL
same,Octreotide Assay (% Stability),"pH 2.0, Glycine-HCl, 48 hours",(72.52) %
same,Octreotide Assay,"pH 2.0, Glycine-HCl, 69 hours",0.1303 mg/mL
same,Octreotide Assay (% Stability),"pH 2.0, Glycine-HCl, 69 hours",(66.31) %
same,Octreotide Assay,"pH 3.0, Glycine-HCl, 0 hours",0.2214 mg/mL
same,Octreotide Assay (% Stability),"pH 3.0, Glycine-HCl, 0 hours",(100.00) %
same,Octreotide Assay,"pH 3.0, Glycine-HCl, 24 hours",0.2136 mg/mL
same,Octreotide Assay (% Stability),"pH 3.0, Glycine-HCl, 24 hours",(96.48) %
same,Octreotide Assay,"pH 3.0, Glycine-HCl, 48 hours",0.2050 mg/mL
same,Octreotide Assay (% Stability),"pH 3.0, Glycine-HCl, 48 hours",(92.59) %
same,Octreotide Assay,"pH 3.0, Glycine-HCl, 69 hours",0.2004 mg/mL
same,Octreotide Assay (% Stability),"pH 3.0, Glycine-HCl, 69 hours",(90.51) %
same,Octreotide Assay,[1],0.1911 mg/mL
same,Octreotide Assay (% Stability),[1],(100.00) %
same,Octreotide Assay,[2],0.1860 mg/mL
same,Octreotide Assay (% Stability),[2],(97.33) %
same,Octreotide Assay,[3],0.1784 mg/mL
same,Octreotide Assay (% Stability),[3],(93.35) %
same,Octreotide Assay,[4],0.1741 mg/mL
same,Octreotide Assay (% Stability),[4],(91.10) %
same,Octreotide Assay,[5],0.2027 mg/mL
same,Octreotide Assay (% Stability),[5],(100.00) %
same,Octreotide Assay,[6],0.1975 mg/mL
same,Octreotide Assay (% Stability),[6],(97.43) %
same,Octreotide Assay,[7],0.1848 mg/mL
same,Octreotide Assay (% Stability),[7],(91.17) %
same,Octreotide Assay,[8],0.1819 mg/mL
same,Octreotide Assay (% Stability),[8],(89.74) %
same,Octreotide Assay,"pH 6.0, Phosphate, 0 hours",0.1934 mg/mL
same,Octreotide Assay (% Stability),"pH 6.0, Phosphate, 0 hours",(100.00) %
same,Octreotide Assay,"pH 6.0, Phosphate, 24 hours",0.1738 mg/mL
same,Octreotide Assay (% Stability),"pH 6.0, Phosphate, 24 hours",(89.87) %
same,Octreotide Assay,"pH 6.0, Phosphate, 48 hours",0.1434 mg/mL
same,Octreotide Assay (% Stability),"pH 6.0, Phosphate, 48 hours",(74.15) %
same,Octreotide Assay,"pH 6.0, Phosphate, 69 hours",0.1276 mg/mL
same,Octreotide Assay (% Stability),"pH 6.0, Phosphate, 69 hours",(65.98) %
same,Octreotide Assay,"pH 7.0, Phosphate, 0 hours",0.2047 mg/mL
same,Octreotide Assay (% Stability),"pH 7.0, Phosphate, 0 hours",(100.00) %
same,Octreotide Assay,"pH 7.0, Phosphate, 24 hours",0.1638 mg/mL
same,Octreotide Assay (% Stability),"pH 7.0, Phosphate, 24 hours",(80.02) %
same,Octreotide Assay,"pH 7.0, Phosphate, 48 hours",0.1247 mg/mL
same,Octreotide Assay (% Stability),"pH 7.0, Phosphate, 48 hours",(60.92) %
same,Octreotide Assay,"pH 7.0, Phosphate, 69 hours",0.1056 mg/mL
same,Octreotide Assay (% Stability),"pH 7.0, Phosphate, 69 hours",(51.59) %
same,Octreotide Assay,"pH 8.0, Phosphate, 0 hours",0.1906 mg/mL
same,Octreotide Assay (% Stability),"pH 8.0, Phosphate, 0 hours",(100.00) %
same,Octreotide Assay,"pH 8.0, Phosphate, 24 hours",0.0793 mg/mL
same,Octreotide Assay (% Stability),"pH 8.0, Phosphate, 24 hours",(41.61) %
same,Octreotide Assay,"pH 8.0, Phosphate, 48 hours",0.0369 mg/mL
same,Octreotide Assay (% Stability),"pH 8.0, Phosphate, 48 hours",(19.36) %
same,Octreotide Assay,"pH 8.0, Phosphate, 69 hours",0.0280 mg/mL
same,Octreotide Assay (% Stability),"pH 8.0, Phosphate, 69 hours",(14.69) %
